# Legend:
# [1] = test system: L5178Y murine lymphosarcoma cells; test: Growth curve after gamma irradiation (final/initial cell density); type: cell-based
# Procedure: The cell density in a mass culture of thymidine hypoxanthine methotrexate glycine/thymidine hypoxanthine glycine (THMG/THG) treated L5178Y cells was determined by Coulter counter and the cells were diluted with fresh warm F10p medium to bring the cell density for treatment to 600,000 cells/ml. Volumes of 10 ml of cell suspension were distributed into three T-25 flasks, and 0.05 ml volumes of solutions of 3-aminotyrosine, as well as a 0.05 ml of distilled water used as a control, to provide a ratio of 5 microliters per 1 ml of cell suspension (a 1:200 dilution) in each flask. In these experiments, the cells were treated with chemical under reduced lighting, but not as totally light sensitive.
# The cells were then reincubated for 10 minutes at 37° C. The flasks were then placed simultaneously in the chamber of the GammaCell 40 irradiator at room temperature. The dose rate for the Cesium-137 exposure was 121.6 rads/min. It has been determined that the temperature of water in a T-25 flask originally at 37° C. placed in the irradiation chamber decreases during an 8 min period to approximately 30° C. Flasks were removed after exposure of 0, 250 rads (2.5 Gy), 500 rads (5.0 Gy), and 1000 rads (10 Gy).
# After the irradiation, the cells were centrifuged and the supernatant discarded. The cells were resuspended in F10p medium, and again centrifuged. The washing process was repeated and the cells were resuspended in 10 ml of complete medium and counted.
# A growth curve study was performed in duplicate by initiating flasks with 60 ml of cell suspension at 20,000 cells per ml. The cells were incubated at 37° C. with continued rotation in 250 ml plastic Erlenmeyer flasks. The cell density was determined by Coulter counter on a daily basis over a 72 hour period.
# (§1) THMG/THG treated L5178Y cells were mass cultured and the cell density determined. Aliquots of the cell suspension with enough cells to give 300,000 cells per ml in 60 ml (1.8×10^7 cells) were distributed into three 50 ml centrifuge tubes, and after centrifugation, the original growth medium was discarded. The cells were resuspended in GIBCO custom formulation medium which had been prepared without phenol red. The cells were then washed one more time by centrifugation and resuspended again in 10 ml of the phenol red-free medium. These 10 ml suspensions of cells containing 1.8×10^7 cells were then transferred into three flasks already containing 50 ml of phenol red-free medium, distilled water, and either 100 nanomoles/ml or 2 micromoles/ml solutions of 3-aminotyrosine. The exposure system was treated as light sensitive (i.e., procedures were performed under gold light or reduced lighting). The cells were then incubated in the dark at 37° C. for 16 hours. Immediately prior to the end of the 16 hours, the cell density was determined by Coulter counter.
# At 16 hours, the cells were irradiated at 0, 250, 500, and 1000 rads as described above in the GammaCell irradiator at room temperature. Immediately after irradiation was completed, the cells were centrifuged, washed twice with F10p, and resuspended in 10 ml of F10p. The cell density was again determined by Coulter counter. Growth curve determinations with initial seeding at 20,000 cells per ml were performed for 72 hours as described above. Cell survival assay by soft agar colony formation was performed as described above, using 0.22% BBL agar (BBL Microbiology Systems) in place of the DIFCO agar previously employed. After 11 days incubation at 37° C., colonies were counted and cell survival was determined.
# [2] = test system: L5178Y murine lymphosarcoma cells; test: Survival after gamma irradiation by colony formation in soft agar; type: cell-based
# Procedure: The remainder of the cell suspension after irradiation was used for determination of survival by colony formation in soft agar. For each dose, based on estimated survival probability, different numbers of cells were distributed in soft agar suspension (0.4% DIFCO Noble Agar) into 100 mm petri dishes. The dishes were briefly chilled to gel the agar, and then after brief warming in the laminar flow hood, placed in the 37° C. humidified CO2 incubator. The dishes were incubated for 11 days, and the number of colonies were determined using an Artek Automatic Colony Counter.
# For the control and each 3-aminotyrosine and radiation dose, the percent cloning efficiency (% CE) was determined by dividing the number of colonies counted at 11 days by the number of cells seeded into the agar, times 100. The 0 dose % CE value was taken to be 100% survival for that chemical. The percent (%) survival reported was calculated by dividing the % CE after a given dose of radiation by the 0 dose % CE, times 100.
# as §1, with “lighting).” for “lighting). The cells were then incubated in the dark at 37° C. for 16 hours. Immediately prior to the end of the 16 hours, the cell density was determined by Coulter counter.”
# Immediately after irradiation was completed, the cells were centrifuged, washed twice with F10p, and resuspended in 10 ml of F10p. The cell density was again determined by Coulter counter. […] After 11 days incubation at 37° C., colonies were counted and cell survival was determined.
# [3] = Zero hour incubation, 250 rads, 2 micromoles/ml
# [4] = Zero hour incubation, 250 rads, 100 nanomoles/ml
# [5] = Zero hour incubation, 500 rads, 2 micromoles/ml
# [6] = Zero hour incubation, 500 rads, 100 nanomoles/ml
# [7] = Zero hour incubation, 1000 rads, 2 micromoles/ml
# [8] = Zero hour incubation, 1000 rads, 100 nanomoles/ml
smiles,measurement,setting,value
"Nc1cc(C[C@H](N)C(=O)O)ccc1O [3-aminotyrosine, 3-amino-L-tyrosine]",Final Cell Density/Initial Cell Density,"[1]; Sixteen hour incubation, 0 rads, 2 micromoles/ml",71.4
same,Final Cell Density/Initial Cell Density,"[1]; Sixteen hour incubation, 0 rads, 100 nanomoles/ml",83.3
same,Final Cell Density/Initial Cell Density,"[1]; Sixteen hour incubation, 250 rads, 2 micromoles/ml",34.6
same,Final Cell Density/Initial Cell Density,"[1]; Sixteen hour incubation, 250 rads, 100 nanomoles/ml",50.5
same,Final Cell Density/Initial Cell Density,"[1]; Sixteen hour incubation, 500 rads, 2 micromoles/ml",6.1
same,Final Cell Density/Initial Cell Density,"[1]; Sixteen hour incubation, 500 rads, 100 nanomoles/ml",5.3
same,Final Cell Density/Initial Cell Density,"[1]; Sixteen hour incubation, 1000 rads, 2 micromoles/ml",1.1
same,Final Cell Density/Initial Cell Density,"[1]; Sixteen hour incubation, 1000 rads, 100 nanomoles/ml",1.3
same,Final Cell Density/Initial Cell Density,"[1]; Zero hour incubation, 0 rads, 2 micromoles/ml",25.0
same,Final Cell Density/Initial Cell Density,"[1]; Zero hour incubation, 0 rads, 100 nanomoles/ml",20.0
same,Final Cell Density/Initial Cell Density,[1]; [3],15.9
same,Final Cell Density/Initial Cell Density,[1]; [4],14.1
same,Final Cell Density/Initial Cell Density,[1]; [5],7.7
same,Final Cell Density/Initial Cell Density,[1]; [6],7.7
same,Final Cell Density/Initial Cell Density,[1]; [7],2.2
same,Final Cell Density/Initial Cell Density,[1]; [8],2.2
same,"Ratio of Percent Survival, 3-Aminotyrosine/Control","[2]; Sixteen hour incubation, 250 rads, 1000 cells seeded, 2 micromoles/ml",0.84
same,"Ratio of Percent Survival, 3-Aminotyrosine/Control","[2]; Sixteen hour incubation, 250 rads, 1000 cells seeded, 100 nanomoles/ml",0.81
same,"Ratio of Percent Survival, 3-Aminotyrosine/Control","[2]; Sixteen hour incubation, 250 rads, 2000 cells seeded, 2 micromoles/ml",0.94
same,"Ratio of Percent Survival, 3-Aminotyrosine/Control","[2]; Sixteen hour incubation, 250 rads, 2000 cells seeded, 100 nanomoles/ml",0.85
same,"Ratio of Percent Survival, 3-Aminotyrosine/Control","[2]; Sixteen hour incubation, 500 rads, 1000 cells seeded, 2 micromoles/ml",1.20
same,"Ratio of Percent Survival, 3-Aminotyrosine/Control","[2]; Sixteen hour incubation, 500 rads, 1000 cells seeded, 100 nanomoles/ml",0.63
same,"Ratio of Percent Survival, 3-Aminotyrosine/Control","[2]; Sixteen hour incubation, 500 rads, 2000 cells seeded, 2 micromoles/ml",1.59
same,"Ratio of Percent Survival, 3-Aminotyrosine/Control","[2]; Sixteen hour incubation, 500 rads, 2000 cells seeded, 100 nanomoles/ml",0.98
same,"Ratio of Percent Survival, 3-Aminotyrosine/Control","[2]; Sixteen hour incubation, 1000 rads, 2.5 × 10^5 cells seeded, 2 micromoles/ml",1.95
same,"Ratio of Percent Survival, 3-Aminotyrosine/Control","[2]; Sixteen hour incubation, 1000 rads, 2.5 × 10^5 cells seeded, 100 nanomoles/ml",4.91
same,"Ratio of Percent Survival, 3-Aminotyrosine/Control","[2]; Sixteen hour incubation, 1000 rads, 5.0 × 10^5 cells seeded, 2 micromoles/ml",3.22
same,"Ratio of Percent Survival, 3-Aminotyrosine/Control","[2]; Sixteen hour incubation, 1000 rads, 5.0 × 10^5 cells seeded, 100 nanomoles/ml",1.27
same,"Ratio of Percent Survival, 3-Aminotyrosine/Control",[2]; [3],0.89
same,"Ratio of Percent Survival, 3-Aminotyrosine/Control",[2]; [4],0.85
same,"Ratio of Percent Survival, 3-Aminotyrosine/Control",[2]; [5],0.63
same,"Ratio of Percent Survival, 3-Aminotyrosine/Control",[2]; [6],0.70
same,"Ratio of Percent Survival, 3-Aminotyrosine/Control",[2]; [7],0.51
same,"Ratio of Percent Survival, 3-Aminotyrosine/Control",[2]; [8],0.56
same,"effect on cell survival after irradiation, in words",[2]; cells preincubated for 16 hours,protective of cell survival

# From patent US4870002A, “Method of prevention of oxidative injury to cells” (priority 1985, dated 1989)
